PMC12186753 (ACS pharmacology & translational science, 2025)
Where “and” joins values, the source holds several entries; their conditions need not be identical. Equal values may be shown once. Read-outs that look alike come from different tables or passages of the source.

Key:
plasmin [1] = target: T1, plasmin (Homo sapiens, UniProt P00747); conditions: read-out: Plasmin Ki; S-2251, 42.5 nM human plasmin, Dixon plot; previously determined; cited from earlier work
plasmin [2] = target: T1, plasmin; assay: Annular fibrin clot assay (FITC-tagged fibrin clot lysis by plasmin); assay type: biochemical; conditions: for IC50/Ki: annular clot IC50 over S-2251 plasmin Ki
human thrombin = human thrombin (Homo sapiens, UniProt P00734); assay: Thrombin inhibition assay with fluorogenic Thrombin Substrate III (Dixon plot, Cornish-Bowden plot); assay type: biochemical; conditions: for Mode of inhibition (Cornish-Bowden S/Vo vs I plot): thrombin; for Ki: TSIII, 0.25 U/mL human thrombin, PBS pH 7.4 at 10% DMSO, Dixon plot
human tPA = human tPA (Homo sapiens, UniProt P00750); assay: tPA inhibition assay with chromogenic substrate S-2288 (Dixon plot, Cornish-Bowden plot); assay type: biochemical; conditions: for Mode of inhibition (Cornish-Bowden S/Vo vs I plot): tPA; for Ki: S-2288, 75 nM human tPA, PBS pH 7.4, Dixon plot
plasmin [3] = target: T1, plasmin; assay: Plasmin inhibition assay with chromogenic substrate S-2251 (Dixon plot, Cornish-Bowden plot); assay type: biochemical; conditions: for Mode of inhibition (Cornish-Bowden S/Vo vs I plot) / rpAMB (KiAMB/Kihetero) / rpTXA (KiTXA/Kihetero): plasmin; for Ki: read-out: Plasmin Ki, S-2251, 42.5 nM human plasmin, PBS pH 7.4, Dixon plot
plasmin [4] = conditions: read-out: Plasmin active site Ki reported in the literature; cited from earlier work
[5] = target: LBS on kringle domains of plasmin; conditions: cited from earlier work

T1 sequence (P00747 97-580 limits assumed): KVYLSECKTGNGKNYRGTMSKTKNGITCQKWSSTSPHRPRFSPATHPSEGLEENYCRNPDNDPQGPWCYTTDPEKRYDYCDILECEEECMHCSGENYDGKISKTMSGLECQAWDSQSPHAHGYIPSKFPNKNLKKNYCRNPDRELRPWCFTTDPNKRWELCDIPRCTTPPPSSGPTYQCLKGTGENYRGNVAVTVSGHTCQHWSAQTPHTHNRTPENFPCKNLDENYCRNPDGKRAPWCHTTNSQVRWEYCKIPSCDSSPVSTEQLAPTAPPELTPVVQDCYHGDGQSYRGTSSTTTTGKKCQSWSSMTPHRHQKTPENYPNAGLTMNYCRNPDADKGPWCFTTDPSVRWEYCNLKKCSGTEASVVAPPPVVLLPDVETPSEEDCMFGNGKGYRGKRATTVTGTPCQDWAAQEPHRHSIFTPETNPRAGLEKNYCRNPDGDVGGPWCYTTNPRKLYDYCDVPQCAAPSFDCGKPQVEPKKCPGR
T1 sequence (P00747 581-810 limits assumed): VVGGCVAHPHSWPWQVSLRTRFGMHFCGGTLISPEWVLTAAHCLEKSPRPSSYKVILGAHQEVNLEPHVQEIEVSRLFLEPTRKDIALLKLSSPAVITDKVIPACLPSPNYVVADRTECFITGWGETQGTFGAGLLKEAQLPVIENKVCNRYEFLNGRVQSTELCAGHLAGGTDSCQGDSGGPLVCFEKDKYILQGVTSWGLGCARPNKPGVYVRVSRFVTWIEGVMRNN
Chain of human tPA (P00750 36-562): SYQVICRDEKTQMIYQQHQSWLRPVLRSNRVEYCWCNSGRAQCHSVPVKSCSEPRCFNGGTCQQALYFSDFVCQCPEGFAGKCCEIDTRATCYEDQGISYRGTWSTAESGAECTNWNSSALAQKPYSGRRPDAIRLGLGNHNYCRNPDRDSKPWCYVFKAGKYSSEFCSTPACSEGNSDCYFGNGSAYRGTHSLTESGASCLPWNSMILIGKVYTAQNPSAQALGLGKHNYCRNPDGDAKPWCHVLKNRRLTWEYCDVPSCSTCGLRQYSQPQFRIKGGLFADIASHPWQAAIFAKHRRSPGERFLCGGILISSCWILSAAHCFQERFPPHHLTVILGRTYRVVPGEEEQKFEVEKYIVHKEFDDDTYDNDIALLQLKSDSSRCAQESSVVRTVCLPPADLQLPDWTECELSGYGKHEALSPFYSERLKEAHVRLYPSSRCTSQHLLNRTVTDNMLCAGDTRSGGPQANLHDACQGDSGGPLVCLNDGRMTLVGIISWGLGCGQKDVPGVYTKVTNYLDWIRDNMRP

| Ki (human thrombin; Thrombin Ki) | SMILES | Mode of inhibition (Cornish-Bowden S/Vo vs I plot) (human thrombin) | Mode of inhibition (Cornish-Bowden S/Vo vs I plot) (human tPA) | Mode of inhibition (Cornish-Bowden S/Vo vs I plot) (plasmin [3]) | Ki (plasmin [3]) | Ki (human thrombin; read-out: Thrombin Ki) | Ki (human tPA; read-out: tPA Ki) | rpAMB (KiAMB/Kihetero) (plasmin [3]) | rpTXA (KiTXA/Kihetero) (plasmin [3]) | other results |
| --- | --- | --- | --- | --- | --- | --- | --- | --- | --- | --- |
| – | N=C(N)c1ccc(N)cc1 [4-amino benzamidine, reference compound] | competitive inhibitor | competitive inhibitor | – | – | – | – | – | – | Ki (plasmin [1]): 51 ± 2.4 µM; IC50 (plasmin [2]): 451 ± 70 µM; Ki (human tPA; tPA Ki): 148 µM |
| 344 µM | N=C(N)c1ccc(CN)cc1 [4-aminomethyl benzamidine, reference compound] | competitive inhibitor | competitive inhibitor | – | – | – | – | – | – | Ki (plasmin [1]): 1070 µM; IC50 (plasmin [2]): 32700 µM; IC50/Ki (plasmin [2]): 29.0; Ki (human tPA; tPA Ki): 5210 µM |
| 151 µM | N=C(N)c1ccc(C(=O)O)cc1 [4-carboxy benzamidine, reference compound] | competitive inhibitor | – | – | – | – | – | – | – | Ki (plasmin [1]): 292 ± 6.5 µM |
| – | N=C(N)c1ccccc1 [Benzamidine, reference compound] | competitive inhibitor | competitive inhibitor | – | – | – | – | – | – | – |
| 65200 µM | NCCCCCC(=O)O [EACA, ɛ-aminocaproic acid, reference compound] | competitive inhibitor | weak competitive inhibitor | weak competitive inhibitor | – | – | – | – | – | – |
| – | N=C(N)c1ccc(CNC(=O)CCOCCOCCOCCOCCNC(=O)CCCCCN)cc1 [EACA-dPEG4-AMB] | competitive inhibitor | competitive inhibitor | competitive inhibitor | 233 ± 5 µM | 4.05 µM and 4 µM | 501 µM | – | – | fold stronger inhibitor of thrombin than the TXA counterpart (human thrombin; EACA-dPEG4-AMB vs TXA-dPEG4-AMB, monovalent EACA vs monovalent TXA): 3 fold |
| – | NC[C@H]1CC[C@H](C(=O)O)CC1 [TXA, Tranexamic acid] | – | – | weak competitive inhibitor | – | – | – | – | – | Ki (plasmin [4]): ~40000 µM; Ki ([5]; read-out: Ki for LBS on the K1 domain of plasmin, K1 domain): 1.1 µM; Ki ([5]; read-out: Ki for the other plasmin kringle domain LBS, other kringle domains): ~750 µM |
| – | N=C(N)c1ccc(CNC(=O)CCOCCOCCOCCOCCNC(=O)[C@H]2CC[C@H](CN)CC2)cc1 [TXA-dPEG4-AMB] | competitive inhibitor | competitive inhibitor | competitive inhibitor | 42 ± 12 µM | 14.5 µM and 14 µM | 230 µM and 231 µM | 26 | 509 | – |
| – | N=C(N)c1ccc(CNC(=O)CCOCCOCCOCCOCCOCCOCCOCCOCCNC(=O)[C@H]2CC[C@H](CN)CC2)cc1 [TXA-dPEG8-AMB] | competitive inhibitor | not to be a solely competitive inhibitor | competitive inhibitor | 99.4 µM and 99 µM | 32.4 µM and 32 µM | 292 ± 0.4 µM | 11 | 216 | – |
| – | N=C(N)c1ccc(CNC(=O)CCOCCOCCOCCOCCOCCOCCOCCOCCOCCOCCOCCOCCNC(=O)[C@H]2CC[C@H](CN)CC2)cc1 [TXA-dPEG12-AMB] | competitive inhibitor | competitive inhibitor | competitive inhibitor | 207 ± 4.1 µM | 45.7 µM and 46 µM | 641 µM | 5 | 103 | – |
| – | N=C(N)c1ccc(CNC(=O)CCOCCOCCOCCOCCOCCOCCOCCOCCOCCOCCOCCOCCOCCOCCOCCOCCOCCOCCOCCOCCOCCOCCOCCOCCOCCOCCOCCOCCOCCOCCOCCOCCOCCOCCOCCOCCNC(=O)[C@H]2CC[C@H](CN)CC2)cc1 [TXA-dPEG36-AMB] | competitive inhibitor | not to be a solely competitive inhibitor | competitive inhibitor | 75.4 µM and 75 µM | 77.5 µM and 78 µM | 136 ± 0.7 µM | 14 | 285 | – |
| – | N=C(N)c1ccc(CNC(=O)CN(CC(=O)NCc2ccc(C(=N)N)cc2)CC(=O)NCc2ccc(C(=N)N)cc2)cc1 [Tri-AMB] | competitive inhibitor | competitive inhibitor | – | – | 10.7 µM and 11 µM | 164 ± 17 µM | – | – | IC50 (plasmin [2]; read-out: Annular IC50, 850 nM plasmin, annular fibrin clot, from Vmax): 7.7 ± 3 µM |

| SMILES | Ki (human thrombin; Thrombin Ki) | Mode of inhibition (Cornish-Bowden S/Vo vs I plot) (human thrombin) | Mode of inhibition (Cornish-Bowden S/Vo vs I plot) (human tPA) | Mode of inhibition (Cornish-Bowden S/Vo vs I plot) (plasmin [3]) | Ki (plasmin [3]) | Ki (human thrombin; read-out: Thrombin Ki) | Ki (human tPA; read-out: tPA Ki) | rpAMB (KiAMB/Kihetero) (plasmin [3]) | rpTXA (KiTXA/Kihetero) (plasmin [3]) | other results |
| --- | --- | --- | --- | --- | --- | --- | --- | --- | --- | --- |
| N=C(N)c1ccc(OCCCCCOc2ccc(C(=N)N)cc2)cc1 [Pentamidine, reference compound] | 4.48 µM and 4.5 µM | competitive inhibitor | competitive inhibitor | – | – | – | – | – | – | IC50 (plasmin [2]): 3.2 ± 1 µM; IC50/Ki (plasmin [2]): 1.5; Ki (human tPA; tPA Ki): 42.7 µM and 43 µM |
